Publication PMC10712727, “Safety, Tolerability, and Pharmacokinetics of Senaparib, a Novel PARP1/2 Inhibitor, in Chinese Patients With Advanced Solid Tumors: A Phase I Trial” (The Oncologist, 2023)

System: patients with advanced solid tumors
Assay: Safety: treatment-emergent and senaparib-related adverse events graded per NCI CTCAE v4.03
Assay type: in vivo
Procedure: This phase I, open-label, multicenter, dose-escalation, and dose-expansion study was conducted at three national clinical institutions in China. […] At baseline, all patients enrolled in the dose-escalation phase had to have at least one evaluable lesion, and those in the dose-expansion period had to have at least one measurable lesion, according to Response Evaluation Criteria in Solid Tumors version 1.1 (RECIST v1.1).[16] Entry to the dose-expansion cohort required the presence of a BRCA mutation, with the exception of patients with ovarian carcinoma, fallopian tube carcinoma, and primary peritoneal carcinoma. Full study eligibility criteria are provided in Supplementary Table S1.
Dose escalation was conducted using a modified Fibonacci 3 + 3 method (Supplementary Fig. S1).[17] Patients were administered oral senaparib from a planned starting dose of 2 mg once daily (QD), with preliminary dose escalation to 120 mg via nine dose groups, in order of their entry into the study. At a given dose level, each patient received a single dose of senaparib followed by a 7-day washout period. They then entered a continuous dosing period to confirm the safety and PK profile, in which they received senaparib QD from day 1 to day 21 of each 3-week cycle. Progression to the next higher dose required approval from the Data Safety Monitoring Committee (DSMC) upon review of the safety and PK data of the previous dose. A 50-mg twice-daily (BID) dosing group was added (planned enrollment, n = 6 patients) based on a DSMC review of the safety, PK, and efficacy analysis of the completed QD dose groups in the phase I clinical trial of senaparib dose escalation in Australia (NCT03507543), which commenced prior to the start of this trial.
The dose-expansion period included 3 populations: dose groups in which at least one patient achieved complete response (CR) or partial response (PR) per RECIST v1.1[16] and 1 dose group higher (evaluated for safety), as well as the dose group at the maximum tolerated dose (MTD)/recommended phase II dose (RP2D). Each of these groups included those patients in the respective dose-escalation group plus a planned additional 10 patients (approximately 20 patients in the MTD/RP2D group) with BRCA^mut+ solid tumors (ovarian, breast, or prostate cancer were preferred, and ovarian cancer could be BRCA wild type). Patients received senaparib monotherapy orally QD or BID (50-mg dose only) over each 3-week cycle until disease progression or unacceptable toxicity.
DLTs were predefined toxicities (Supplementary Table S2) recorded over the 7 days following the single-dose administration of senaparib and during the first treatment cycle (day 1-day 21) for each dose group in the dose-escalation period only. The MTD was defined as the maximum dose at which ≤1/6 patients experienced a DLT. Senaparib PK parameters were derived from blood samples collected from patients after the single administration, and at regular intervals during the first cycle of the dose-escalation and dose-expansion periods. Plasma concentrations of senaparib were determined using high-performance liquid chromatography-tandem mass spectrometry. Tumor response was assessed every 6 weeks per RECIST v1.1,[16] recording objective response rate (ORR), disease control rate (DCR), duration of response (DOR), and progression-free survival (PFS) by dose level for all patients and for those harboring BRCA^mut+ tumors.

SMILES: O=C(c1cc(Cn2c(=O)[nH]c(=O)c3c(F)cccc32)ccc1F)N1CCN(c2ncccn2)CC1 [Senaparib]
- Appetite decreased TRAE, All (80 mg QD n = 9): 3 (33.3) n (%)
- Appetite decreased TRAE, Gr≥3 (80 mg QD n = 9): 0 n (%)
- Asthenia TRAE, All (80 mg QD n = 9): 2 (22.2) n (%)
- Asthenia TRAE, Gr≥3 (80 mg QD n = 9): 0 n (%)
- Blood bilirubin increased TRAE, All (80 mg QD n = 9): 2 (22.2) n (%)
- Blood bilirubin increased TRAE, Gr≥3 (80 mg QD n = 9): 0 n (%)
- Blood creatinine increased TRAE, All (80 mg QD n = 9): 2 (22.2) n (%)
- Blood creatinine increased TRAE, Gr≥3 (80 mg QD n = 9): 0 n (%)
- Hypokalemia TRAE, All (80 mg QD n = 9): 3 (33.3) n (%)
- Nausea TRAE, All (80 mg QD n = 9): 4 (44.4) n (%)
- Nausea TRAE, Gr≥3 (80 mg QD n = 9): 0 n (%)
- Neutrophil count decreased TRAE, All (80 mg QD n = 9): 4 (44.4) n (%)
- Neutrophil count decreased TRAE, Gr≥3 (80 mg QD n = 9): 1 (11.1) n (%)
- Platelet count decreased TRAE, All (80 mg QD n = 9): 4 (44.4) n (%)
- Platelet count decreased TRAE, Gr≥3 (80 mg QD n = 9): 2 (22.2) n (%)
- SAEs, events (80 mg QD n = 9): 5 n ev
- SAEs, patients (80 mg QD n = 9): 5 (55.6) n (%)
- TEAE Grade ≥3, events (80 mg QD n = 9): 12 n ev
- TEAE Grade ≥3, patients (80 mg QD n = 9): 6 (66.7) n (%)
- TEAEs leading to death, events (80 mg QD n = 9): 1 n ev
- TEAEs leading to death, patients (80 mg QD n = 9): 1 (11.1) n (%)
- TEAEs leading to dose discontinuation, events (80 mg QD n = 9): 4 n ev
- TEAEs leading to dose discontinuation, patients (80 mg QD n = 9): 1 (11.1) n (%)
- TEAEs leading to dose interruption, events (80 mg QD n = 9): 9 n ev
- TEAEs leading to dose interruption, patients (80 mg QD n = 9): 4 (44.4) n (%)
- TEAEs leading to dose reduction, events (80 mg QD n = 9): 3 n ev
- TEAEs leading to dose reduction, patients (80 mg QD n = 9): 3 (33.3) n (%)
- TRAEs Grade ≥3, events (80 mg QD n = 9): 10 n ev
- TRAEs Grade ≥3, patients (80 mg QD n = 9): 5 (55.6) n (%)
- TRAEs, events (80 mg QD n = 9): 109 n ev
- TRAEs, patients (80 mg QD n = 9): 9 (100) n (%)
- Vomiting TRAE, All (80 mg QD n = 9): 2 (22.2) n (%)
- Vomiting TRAE, Gr≥3 (80 mg QD n = 9): 1 (11.1) n (%)
- WBC decreased TRAE, All (80 mg QD n = 9): 5 (55.6) n (%)
- WBC decreased TRAE, Gr≥3 (80 mg QD n = 9): 1 (11.1) n (%)
- ALT increased TRAE, All (100 mg QD n = 20): 5 (25.0) n (%)
- ALT increased TRAE, Gr≥3 (100 mg QD n = 20): 0 n (%)
- AST increased TRAE, All (100 mg QD n = 20): 4 (20.0) n (%)
- AST increased TRAE, Gr≥3 (100 mg QD n = 20): 1 (5.0) n (%)
- Anemia TRAE, All (100 mg QD n = 20): 11 (55.0) n (%)
- Anemia TRAE, Gr≥3 (100 mg QD n = 20): 4 (20.0) n (%)
- Any TEAE, All (100 mg QD n = 20): 20 (100) n (%)
- Any TEAE, Gr≥3 (100 mg QD n = 20): 7 (35.0) n (%)
- Any TEAE, events (100 mg QD n = 20): 158 n ev
- Any TEAE, patients (100 mg QD n = 20): 20 (100) n (%)
- Any TRAE, All (100 mg QD n = 20): 20 (100) n (%)
- Any TRAE, Gr≥3 (100 mg QD n = 20): 7 (35.0) n (%)
- Appetite decreased TRAE, All (100 mg QD n = 20): 5 (25.0) n (%)
- Appetite decreased TRAE, Gr≥3 (100 mg QD n = 20): 0 n (%)
- Asthenia TRAE, All (100 mg QD n = 20): 5 (25.0) n (%)
- Asthenia TRAE, Gr≥3 (100 mg QD n = 20): 0 n (%)
- Blood bilirubin increased TRAE, All (100 mg QD n = 20): 3 (15.0) n (%)
- Blood bilirubin increased TRAE, Gr≥3 (100 mg QD n = 20): 0 n (%)
- Blood creatinine increased TRAE, All (100 mg QD n = 20): 2 (10.0) n (%)
- Blood creatinine increased TRAE, Gr≥3 (100 mg QD n = 20): 0 n (%)
- Hypokalemia TRAE, All (100 mg QD n = 20): 0 n (%)
- Hypokalemia TRAE, Gr≥3 (100 mg QD n = 20): 0 n (%)
- Nausea TRAE, All (100 mg QD n = 20): 4 (20.0) n (%)
- Nausea TRAE, Gr≥3 (100 mg QD n = 20): 0 n (%)
- Neutrophil count decreased TRAE, All (100 mg QD n = 20): 5 (25.0) n (%)
- Neutrophil count decreased TRAE, Gr≥3 (100 mg QD n = 20): 2 (10.0) n (%)
- Platelet count decreased TRAE, All (100 mg QD n = 20): 6 (30.0) n (%)
- Platelet count decreased TRAE, Gr≥3 (100 mg QD n = 20): 1 (5.0) n (%)
- SAEs, events (100 mg QD n = 20): 1 n ev
- SAEs, patients (100 mg QD n = 20): 1 (5.0) n (%)
- TEAE Grade ≥3, events (100 mg QD n = 20): 9 n ev
- TEAE Grade ≥3, patients (100 mg QD n = 20): 7 (35.0) n (%)
- TEAEs leading to death, events (100 mg QD n = 20): 0 n ev
- TEAEs leading to death, patients (100 mg QD n = 20): 0 n (%)
- TEAEs leading to dose discontinuation, events (100 mg QD n = 20): 1 n ev
- TEAEs leading to dose discontinuation, patients (100 mg QD n = 20): 1 (5.0) n (%)
- TEAEs leading to dose interruption, events (100 mg QD n = 20): 8 n ev
- TEAEs leading to dose interruption, patients (100 mg QD n = 20): 6 (30.0) n (%)
- TEAEs leading to dose reduction, events (100 mg QD n = 20): 6 n ev
- TEAEs leading to dose reduction, patients (100 mg QD n = 20): 4 (20.0) n (%)
- TRAEs Grade ≥3, events (100 mg QD n = 20): 9 n ev
- TRAEs Grade ≥3, patients (100 mg QD n = 20): 7 (35.0) n (%)
- TRAEs, events (100 mg QD n = 20): 144 n ev
- TRAEs, patients (100 mg QD n = 20): 20 (100) n (%)
- Vomiting TRAE, All (100 mg QD n = 20): 5 (25.0) n (%)
- Vomiting TRAE, Gr≥3 (100 mg QD n = 20): 0 n (%)
- WBC decreased TRAE, All (100 mg QD n = 20): 9 (45.0) n (%)
- WBC decreased TRAE, Gr≥3 (100 mg QD n = 20): 1 (5.0) n (%)
- ALT increased TRAE, All (120 mg QD n = 4): 2 (50.0) n (%)
- ALT increased TRAE, Gr≥3 (120 mg QD n = 4): 1 (25.0) n (%)
- AST increased TRAE, All (120 mg QD n = 4): 2 (50.0) n (%)
- AST increased TRAE, Gr≥3 (120 mg QD n = 4): 0 n (%)
- Anemia TRAE, All (120 mg QD n = 4): 3 (75.0) n (%)
- Anemia TRAE, Gr≥3 (120 mg QD n = 4): 1 (25.0) n (%)
- Any TEAE, All (120 mg QD n = 4): 4 (100) n (%)
- Any TEAE, Gr≥3 (120 mg QD n = 4): 3 (75.0) n (%)
- Any TEAE, events (120 mg QD n = 4): 52 n ev
- Any TEAE, patients (120 mg QD n = 4): 4 (100) n (%)
- Any TRAE, All (120 mg QD n = 4): 4 (100) n (%)
- Any TRAE, Gr≥3 (120 mg QD n = 4): 3 (75.0) n (%)
- Appetite decreased TRAE, All (120 mg QD n = 4): 1 (25.0) n (%)
- Appetite decreased TRAE, Gr≥3 (120 mg QD n = 4): 0 n (%)
- Asthenia TRAE, All (120 mg QD n = 4): 2 (50.0) n (%)
- Asthenia TRAE, Gr≥3 (120 mg QD n = 4): 0 n (%)
- Blood bilirubin increased TRAE, All (120 mg QD n = 4): 2 (50.0) n (%)
- Blood bilirubin increased TRAE, Gr≥3 (120 mg QD n = 4): 1 (25.0) n (%)
- Blood creatinine increased TRAE, All (120 mg QD n = 4): 1 (25.0) n (%)
- Blood creatinine increased TRAE, Gr≥3 (120 mg QD n = 4): 0 n (%)
- Hypokalemia TRAE, All (120 mg QD n = 4): 0 n (%)
- Hypokalemia TRAE, Gr≥3 (120 mg QD n = 4): 0 n (%)
- Nausea TRAE, All (120 mg QD n = 4): 1 (25.0) n (%)
- Nausea TRAE, Gr≥3 (120 mg QD n = 4): 0 n (%)
- Neutrophil count decreased TRAE, All (120 mg QD n = 4): 1 (25.0) n (%)
- Neutrophil count decreased TRAE, Gr≥3 (120 mg QD n = 4): 0 n (%)
- Platelet count decreased TRAE, All (120 mg QD n = 4): 1 (25.0) n (%)
- Platelet count decreased TRAE, Gr≥3 (120 mg QD n = 4): 0 n (%)
- SAEs, events (120 mg QD n = 4): 1 n ev
- SAEs, patients (120 mg QD n = 4): 1 (25.0) n (%)
- TEAE Grade ≥3, events (120 mg QD n = 4): 6 n ev
- TEAE Grade ≥3, patients (120 mg QD n = 4): 3 (75.0) n (%)
- TEAEs leading to death, events (120 mg QD n = 4): 0 n ev
